Test results reported in patent US20070142412A1, “Crystalline form of 2-{4-['3-(4-chloro-2-fluorophenyl)-4-pyrimidin-4-yl-1h-pyrazol-5-yl]piperidin-1-yl}-2-oxoethanol” (priority 2003, published 2007).

Experiment: Moisture sorption analysis (DVS) followed by PXRD
Type: physicochemical
Settings: 25° C.
Procedure: The moisture sorption profile of the sample was determined using a Surface Measurement System (SMS) DVS-1 Automated Water Sorption Analyzer operating via SMS Software version 2.16. The change in mass of the sample versus relative humidity (RH) was monitored at 25° C. using a method from 30% to 0%, 0% to 90%, 90% to 0%, and 0% to 30% RH in 10% RH steps with dm/dt=3×10^−4. Maximum hold time per step was 4 hours. An approximately 15 mg sample was loaded onto the sample holder. The balance was calibrated with a 100 mg standard weight at 25° C. HPLC-grade water was used for the study. It is believed that about 0.5% water is believed to be surface bound moisture. To investigate the hydration state of the Form 1 hydrate, moisture sorption analysis was performed. At the conclusion of the study, the sample was removed from the moisture sorption balance and analyzed by PXRD. […] Constant mass was not obtained at 0% RH in the moisture sorption study; therefore, an additional moisture sorption study was conducted with increase maximum hold time per step to allow the sample to reach equilibrium over the low RH range. […] This theory is in no way to be construed as limiting.

O=C(CO)N1CCC(c2[nH]nc(-c3ccc(Cl)cc3F)c2-c2ccncn2)CC1 [Form 1 hydrate, 2-{4-[3-(4-chloro-2-fluorophenyl)-4-pyrimidin-4-yl-1H-pyrazol-5-yl]piperidin-1-yl}-2-oxoethanol]
Change in PXRD diffraction pattern after moisture sorption analysis (cycled 30% to 0%, 0% to 90%, 90% to 0%, 0% to 30% RH in 10% RH steps): No change was observed
Water content indicated by moisture sorption data (at least 0.5% thought to be surface bound moisture): approximately 5.5%
